According to publication PMC6429214, “Design, Synthesis and Biological Evaluation of Isoxazole-Based CK1 Inhibitors Modified with Chiral Pyrrolidine Scaffolds” (Molecules, 2019):

How the values were obtained:
Experiment in all cases: 33PanQinase panel
Type in all cases: biochemical
DYRK2 = molecular target: T1, DYRK2 (Homo sapiens, UniProt Q92630); details: DYRK2, 1 µM; read-out: Residual Activity (%)
T1 construct: purchased ProQinase
Summary of the method: (§1)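 Activity-based radiometric profiling: one concentration (1 µM), 1% DMSO in reaction mix, output as % remaining activity against DMSO-treated control.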

MEK5 = molecular target: T2, MEK5 (Homo sapiens, UniProt Q13163); details: MEK5, 1 µM; read-out: Residual Activity (%)
T2 construct: purchased ProQinase
Summary of the method: as §1

HIPK4 = molecular target: T3, HIPK4 (Homo sapiens, UniProt Q8NE63); details: HIPK4, 1 µM; read-out: Residual Activity (%)
T3 construct: purchased ProQinase
Summary of the method: as §1

BRK = molecular target: T4, BRK (Homo sapiens, UniProt Q13882); details: read-out: Residual Activity (%)
T4 construct: purchased ProQinase
Summary of the method: as §1

MATK = molecular target: T5, MATK (Homo sapiens, UniProt P42679); details: read-out: Residual Activity (%)
T5 construct: purchased ProQinase
T5 sequence (P42679 whole entry): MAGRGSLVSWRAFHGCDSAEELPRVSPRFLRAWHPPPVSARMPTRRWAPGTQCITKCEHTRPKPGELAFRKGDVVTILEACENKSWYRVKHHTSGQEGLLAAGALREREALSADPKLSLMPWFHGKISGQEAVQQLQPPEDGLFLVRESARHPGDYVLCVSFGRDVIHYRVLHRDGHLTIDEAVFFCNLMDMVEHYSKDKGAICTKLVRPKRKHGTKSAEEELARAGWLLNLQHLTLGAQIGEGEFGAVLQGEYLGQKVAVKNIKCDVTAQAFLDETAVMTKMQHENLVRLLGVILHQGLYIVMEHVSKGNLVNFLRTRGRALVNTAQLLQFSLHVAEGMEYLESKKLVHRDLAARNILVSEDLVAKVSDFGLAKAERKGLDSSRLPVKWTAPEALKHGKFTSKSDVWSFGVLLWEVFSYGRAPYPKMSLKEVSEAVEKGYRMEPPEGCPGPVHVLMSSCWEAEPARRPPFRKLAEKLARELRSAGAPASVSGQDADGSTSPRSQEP
Summary of the method: as §1

HCK = molecular target: T6, HCK (Homo sapiens, UniProt P08631); details: read-out: Residual Activity (%)
T6 construct: purchased ProQinase
Summary of the method: as §1

ACV-R2B = molecular target: T7, ACV-R2B (Homo sapiens, UniProt Q13705); details: read-out: Residual Activity (%)
T7 construct: purchased ProQinase
Summary of the method: as §1

EPHA2 = molecular target: T8, EPHA2 (Homo sapiens, UniProt P29317); details: EPHA2, 1 µM; read-out: Residual Activity (%)
T8 construct: purchased ProQinase
T8 sequence (P29317 24-976): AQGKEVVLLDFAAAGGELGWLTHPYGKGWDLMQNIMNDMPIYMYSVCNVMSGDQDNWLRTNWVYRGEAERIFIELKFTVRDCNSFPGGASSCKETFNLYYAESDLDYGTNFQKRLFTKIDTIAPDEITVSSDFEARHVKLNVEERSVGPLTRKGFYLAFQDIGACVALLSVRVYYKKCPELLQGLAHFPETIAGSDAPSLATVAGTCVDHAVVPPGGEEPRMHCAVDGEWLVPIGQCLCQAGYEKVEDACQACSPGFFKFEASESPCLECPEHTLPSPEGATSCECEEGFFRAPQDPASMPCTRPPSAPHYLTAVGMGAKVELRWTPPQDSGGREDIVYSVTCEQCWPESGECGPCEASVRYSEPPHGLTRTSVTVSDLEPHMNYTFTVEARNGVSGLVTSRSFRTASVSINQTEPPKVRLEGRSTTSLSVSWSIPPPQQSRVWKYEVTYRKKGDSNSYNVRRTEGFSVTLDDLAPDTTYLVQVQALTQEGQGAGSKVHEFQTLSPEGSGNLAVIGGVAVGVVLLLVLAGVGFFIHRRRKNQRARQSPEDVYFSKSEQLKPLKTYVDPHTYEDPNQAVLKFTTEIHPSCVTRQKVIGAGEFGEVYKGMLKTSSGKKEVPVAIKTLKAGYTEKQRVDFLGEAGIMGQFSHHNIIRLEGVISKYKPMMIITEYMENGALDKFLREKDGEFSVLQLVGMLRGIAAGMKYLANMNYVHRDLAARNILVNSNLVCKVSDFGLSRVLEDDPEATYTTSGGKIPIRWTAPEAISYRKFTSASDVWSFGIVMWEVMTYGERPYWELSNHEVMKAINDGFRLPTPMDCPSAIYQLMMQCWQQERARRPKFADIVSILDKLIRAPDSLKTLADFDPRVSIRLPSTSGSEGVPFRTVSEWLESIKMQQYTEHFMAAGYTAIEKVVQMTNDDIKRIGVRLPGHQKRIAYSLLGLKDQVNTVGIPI
Summary of the method: as §1

PRK2 = molecular target: T9, PRK2 (Homo sapiens, UniProt Q16513); details: PRK2, 1 µM; read-out: Residual Activity (%)
T9 construct: purchased ProQinase
Summary of the method: as §1

MST2 = molecular target: T10, MST2 (Homo sapiens, UniProt Q13188); details: MST2, 1 µM; read-out: Residual Activity (%)
T10 construct: purchased ProQinase
Summary of the method: as §1

ZAK = molecular target: T11, ZAK (Homo sapiens, UniProt Q9NYL2); details: read-out: Residual Activity (%)
T11 construct: purchased ProQinase
Summary of the method: as §1

MARK2 = molecular target: T12, MARK2 (Homo sapiens, UniProt Q7KZI7); details: MARK2, 1 µM; read-out: Residual Activity (%)
T12 construct: purchased ProQinase
T12 sequence (Q7KZI7 whole entry): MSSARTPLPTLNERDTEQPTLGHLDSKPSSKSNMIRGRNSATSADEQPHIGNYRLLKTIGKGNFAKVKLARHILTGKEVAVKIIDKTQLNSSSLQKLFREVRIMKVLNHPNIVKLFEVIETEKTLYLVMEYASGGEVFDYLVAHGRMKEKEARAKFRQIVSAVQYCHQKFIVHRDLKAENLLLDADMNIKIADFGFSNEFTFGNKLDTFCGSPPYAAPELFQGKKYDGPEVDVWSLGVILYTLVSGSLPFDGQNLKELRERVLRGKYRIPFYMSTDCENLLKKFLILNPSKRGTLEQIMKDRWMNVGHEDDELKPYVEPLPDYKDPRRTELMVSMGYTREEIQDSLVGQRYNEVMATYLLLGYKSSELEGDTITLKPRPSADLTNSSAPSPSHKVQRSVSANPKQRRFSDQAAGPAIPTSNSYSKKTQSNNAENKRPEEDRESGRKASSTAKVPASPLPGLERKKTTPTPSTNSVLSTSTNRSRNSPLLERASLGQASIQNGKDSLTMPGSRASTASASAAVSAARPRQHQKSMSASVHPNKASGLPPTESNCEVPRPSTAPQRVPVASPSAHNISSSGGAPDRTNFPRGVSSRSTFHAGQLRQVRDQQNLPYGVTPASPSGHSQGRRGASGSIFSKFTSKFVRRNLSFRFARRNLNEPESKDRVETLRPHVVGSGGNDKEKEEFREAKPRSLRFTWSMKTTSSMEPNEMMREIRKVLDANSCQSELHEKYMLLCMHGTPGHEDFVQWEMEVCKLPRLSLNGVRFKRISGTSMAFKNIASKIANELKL
Summary of the method: as §1

NEK11 = molecular target: T13, NEK11 (Homo sapiens, UniProt Q8NG66); details: NEK11, 1 µM; read-out: Residual Activity (%)
T13 construct: purchased ProQinase
Summary of the method: as §1

TXK = molecular target: T14, TXK (Homo sapiens, UniProt P42681); details: read-out: Residual Activity (%)
T14 construct: purchased ProQinase
Summary of the method: as §1

VRK2 = molecular target: T15, VRK2 (Homo sapiens, UniProt Q86Y07); details: VRK2, 1 µM; read-out: Residual Activity (%)
T15 construct: purchased ProQinase
Summary of the method: as §1

TSK2 = molecular target: T16, TSK2 (Homo sapiens, UniProt Q96PF2); details: TSK2, 1 µM; read-out: Residual Activity (%)
T16 construct: purchased ProQinase
Summary of the method: as §1

EPHA4 = molecular target: T17, EPHA4 (Homo sapiens, UniProt P54764); details: EPHA4, 1 µM; read-out: Residual Activity (%)
T17 construct: purchased ProQinase
Summary of the method: as §1

CAMK2D = molecular target: T18, CAMK2D (Homo sapiens, UniProt Q13557); details: read-out: Residual Activity (%)
T18 construct: purchased ProQinase
Summary of the method: as §1

CK1-delta = molecular target: T19, CK1-delta (Homo sapiens, UniProt P48730); details: read-out: Residual Activity (%)
T19 construct: purchased ProQinase
T19 sequence (P48730 whole entry): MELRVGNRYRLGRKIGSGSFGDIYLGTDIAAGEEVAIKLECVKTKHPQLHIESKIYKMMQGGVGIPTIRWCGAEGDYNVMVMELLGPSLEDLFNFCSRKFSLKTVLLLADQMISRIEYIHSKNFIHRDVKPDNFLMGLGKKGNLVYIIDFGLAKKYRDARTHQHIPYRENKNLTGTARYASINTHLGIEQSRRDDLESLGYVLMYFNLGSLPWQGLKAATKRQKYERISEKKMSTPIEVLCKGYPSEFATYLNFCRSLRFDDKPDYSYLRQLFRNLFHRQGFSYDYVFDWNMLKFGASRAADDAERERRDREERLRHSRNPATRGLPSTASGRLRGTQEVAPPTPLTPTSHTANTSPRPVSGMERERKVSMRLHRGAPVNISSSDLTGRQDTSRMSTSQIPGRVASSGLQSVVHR
Summary of the method: as §1

ERK2 = molecular target: T20, ERK2 (Homo sapiens, UniProt P28482); details: ERK2, 1 µM; read-out: Residual Activity (%)
T20 construct: purchased ProQinase
Summary of the method: as §1

JNK3 = molecular target: T21, JNK3 (Homo sapiens, UniProt P53779); details: JNK3, 1 µM; read-out: Residual Activity (%)
T21 construct: purchased ProQinase
Summary of the method: as §1

PKMYT1 = molecular target: T22, PKMYT1 (Homo sapiens, UniProt Q99640); details: PKMYT1, 1 µM; read-out: Residual Activity (%)
T22 construct: purchased ProQinase
Summary of the method: as §1

JAK3 = molecular target: T23, JAK3 (Homo sapiens, UniProt P52333); details: JAK3, 1 µM; read-out: Residual Activity (%)
T23 construct: purchased ProQinase
T23 sequence (P52333 whole entry): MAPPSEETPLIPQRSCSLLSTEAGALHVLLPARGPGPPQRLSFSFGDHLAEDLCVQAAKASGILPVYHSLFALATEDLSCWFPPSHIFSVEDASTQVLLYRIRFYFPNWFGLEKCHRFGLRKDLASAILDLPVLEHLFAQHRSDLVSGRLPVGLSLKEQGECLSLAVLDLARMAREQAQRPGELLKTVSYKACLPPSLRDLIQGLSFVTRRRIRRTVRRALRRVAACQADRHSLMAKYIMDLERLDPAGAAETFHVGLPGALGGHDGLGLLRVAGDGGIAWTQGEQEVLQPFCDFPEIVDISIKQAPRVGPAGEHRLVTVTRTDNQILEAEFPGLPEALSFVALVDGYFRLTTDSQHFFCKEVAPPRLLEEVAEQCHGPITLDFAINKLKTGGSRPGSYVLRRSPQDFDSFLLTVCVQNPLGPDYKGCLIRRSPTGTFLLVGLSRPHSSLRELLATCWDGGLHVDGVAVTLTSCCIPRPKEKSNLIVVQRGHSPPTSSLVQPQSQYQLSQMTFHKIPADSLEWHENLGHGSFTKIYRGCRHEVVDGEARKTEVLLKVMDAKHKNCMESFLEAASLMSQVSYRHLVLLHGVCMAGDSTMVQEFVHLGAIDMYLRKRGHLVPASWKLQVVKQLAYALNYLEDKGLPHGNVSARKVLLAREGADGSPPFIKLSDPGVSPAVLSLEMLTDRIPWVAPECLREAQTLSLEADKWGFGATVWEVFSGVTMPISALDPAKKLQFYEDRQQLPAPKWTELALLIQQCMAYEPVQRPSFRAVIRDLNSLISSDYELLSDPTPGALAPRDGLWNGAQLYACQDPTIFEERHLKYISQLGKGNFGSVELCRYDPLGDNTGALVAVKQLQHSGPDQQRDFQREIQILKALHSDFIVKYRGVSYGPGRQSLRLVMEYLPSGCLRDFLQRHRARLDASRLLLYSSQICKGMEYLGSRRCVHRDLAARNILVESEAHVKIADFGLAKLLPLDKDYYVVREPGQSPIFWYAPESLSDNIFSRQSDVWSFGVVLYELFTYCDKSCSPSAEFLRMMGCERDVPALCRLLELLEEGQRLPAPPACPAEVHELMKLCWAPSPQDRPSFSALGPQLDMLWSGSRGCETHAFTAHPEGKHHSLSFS
Summary of the method: as §1

DCAMKL2 = molecular target: T24, DCAMKL2 (Homo sapiens, UniProt Q8N568); details: DCAMKL2, 1 µM; read-out: Residual Activity (%)
T24 construct: purchased ProQinase
Summary of the method: as §1

SRPK2 = molecular target: T25, SRPK2 (Homo sapiens, UniProt P78362); details: SRPK2, 1 µM; read-out: Residual Activity (%)
T25 construct: purchased ProQinase
Summary of the method: as §1

TTK = molecular target: T26, TTK (Homo sapiens, UniProt P33981); details: read-out: Residual Activity (%)
T26 construct: purchased ProQinase
Summary of the method: as §1

FGF-R1 = molecular target: T27, FGF-R1 (Homo sapiens, UniProt P11362); details: FGF-R1, 1 µM; read-out: Residual Activity (%)
T27 construct: purchased ProQinase
T27 sequence (P11362 22-822): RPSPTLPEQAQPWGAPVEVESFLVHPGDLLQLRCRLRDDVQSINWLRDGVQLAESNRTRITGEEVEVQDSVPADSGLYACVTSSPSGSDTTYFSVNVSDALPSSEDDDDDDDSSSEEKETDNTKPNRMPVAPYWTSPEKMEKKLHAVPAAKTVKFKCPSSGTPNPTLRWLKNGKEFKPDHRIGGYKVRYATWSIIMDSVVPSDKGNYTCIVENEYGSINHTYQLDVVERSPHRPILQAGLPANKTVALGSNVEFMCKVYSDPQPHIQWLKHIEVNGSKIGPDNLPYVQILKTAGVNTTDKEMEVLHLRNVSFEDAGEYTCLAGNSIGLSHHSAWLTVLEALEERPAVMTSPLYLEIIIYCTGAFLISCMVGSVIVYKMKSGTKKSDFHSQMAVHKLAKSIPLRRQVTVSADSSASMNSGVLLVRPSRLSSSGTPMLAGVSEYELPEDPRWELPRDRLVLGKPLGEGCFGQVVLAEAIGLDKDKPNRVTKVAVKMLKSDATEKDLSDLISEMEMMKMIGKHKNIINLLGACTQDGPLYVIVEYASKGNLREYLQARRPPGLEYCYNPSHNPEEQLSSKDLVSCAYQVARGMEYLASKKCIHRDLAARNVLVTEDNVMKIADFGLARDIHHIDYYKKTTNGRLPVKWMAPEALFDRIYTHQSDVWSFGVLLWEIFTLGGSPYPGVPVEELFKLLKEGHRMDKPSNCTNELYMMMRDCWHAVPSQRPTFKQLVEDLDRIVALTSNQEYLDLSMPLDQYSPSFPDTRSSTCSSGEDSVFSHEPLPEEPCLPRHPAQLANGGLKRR
Summary of the method: as §1

BRSK1 = molecular target: T28, BRSK1 (Homo sapiens, UniProt Q8TDC3); details: BRSK1, 1 µM; read-out: Residual Activity (%)
T28 construct: purchased ProQinase
Summary of the method: as §1

PIM3 = molecular target: T29, PIM3 (Homo sapiens, UniProt Q86V86); details: PIM3, 1 µM; read-out: Residual Activity (%)
T29 construct: purchased ProQinase
Summary of the method: as §1

p38-delta = molecular target: T30, p38-delta (Homo sapiens, UniProt O15264); details: read-out: Residual Activity (%)
T30 construct: purchased ProQinase
T30 sequence (O15264 whole entry): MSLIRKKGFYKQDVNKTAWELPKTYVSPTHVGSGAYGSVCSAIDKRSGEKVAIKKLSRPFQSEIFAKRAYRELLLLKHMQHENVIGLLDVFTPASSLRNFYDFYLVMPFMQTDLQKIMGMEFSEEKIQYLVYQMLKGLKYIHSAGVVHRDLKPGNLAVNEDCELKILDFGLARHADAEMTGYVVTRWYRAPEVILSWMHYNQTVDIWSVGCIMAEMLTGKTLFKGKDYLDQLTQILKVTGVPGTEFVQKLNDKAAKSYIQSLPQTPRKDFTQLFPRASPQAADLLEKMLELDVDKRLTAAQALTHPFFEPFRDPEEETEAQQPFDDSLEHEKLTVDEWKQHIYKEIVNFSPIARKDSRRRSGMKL
Summary of the method: as §1

Molecule COc1ccc(-c2cc(C(=O)Nc3cc(-c4c(-c5ccc(F)cc5)noc4C(C)C)ccn3)n(CC3NCC(O)C3O)c2)cc1 (stereo not drawn) [29d] has a remaining activity at 1 µM (DYRK2) of 96%, a remaining activity at 1 µM (MEK5) of 110% and a remaining activity at 1 µM (HIPK4) of 91%. The remaining activity at 1 µM (BRK) was 131%, the remaining activity at 1 µM (MATK) was 167% and the remaining activity at 1 µM (HCK) was 110%. The remaining activity at 1 µM (ACV-R2B) was 127%, the remaining activity at 1 µM (EPHA2) was 103% and the remaining activity at 1 µM (PRK2) was 88%. It also gave a remaining activity at 1 µM (MST2) of 85%, a remaining activity at 1 µM (ZAK) of 116% and a remaining activity at 1 µM (MARK2) of 97%. It also gave a remaining activity at 1 µM (NEK11) of 100%, a remaining activity at 1 µM (TXK) of 119% and a remaining activity at 1 µM (VRK2) of 92%. It also gave a remaining activity at 1 µM (TSK2) of 99%, a remaining activity at 1 µM (EPHA4) of 100% and a remaining activity at 1 µM (CAMK2D) of 100%. It also gave a remaining activity at 1 µM (CK1-delta) of 1%, a remaining activity at 1 µM (ERK2) of 104% and a remaining activity at 1 µM (JNK3) of 15%. For the same molecule, the remaining activity at 1 µM (PKMYT1) was 107%, the remaining activity at 1 µM (JAK3) was 81% and the remaining activity at 1 µM (DCAMKL2) was 86%. For the same molecule, the remaining activity at 1 µM (SRPK2) was 107%, the remaining activity at 1 µM (TTK) was 100% and the remaining activity at 1 µM (FGF-R1) was 138%. The remaining activity at 1 µM (BRSK1) was 104%, the remaining activity at 1 µM (PIM3) was 98% and the remaining activity at 1 µM (p38-delta) was 99%.
